# Experimental data published in patent publication US10774052B2, “Heteroaryl compounds and uses thereof” (Celgene CAR LLC, priority 2013, dated 2020).
# “Also recorded” adds a separate entry of the source. Where two headings read alike, the source gives them in different places.
# What was measured:
# Assay type in all cases: cell-based
# pFGFR4 in Huh7 cells = experiment: FGFR4 signaling, pFGFR4 (Huh); MSD (Method B); settings: Homo sapiens
# [1] = system: pFGFR4 in MDA-MB-453 cells; experiment: FGFR4 signaling, pFGFR4 (MDA); Western blot (Method A), MSD (Method B), ELISA (Method C); settings: Homo sapiens
# [2] = system: pFGFR4 in MDA-MB-453 cells; experiment: Washout experiment (duration of action on pFGFR4); settings: 1000-2000 nM for 1 hr, washed, up to 24 hr
# Method: The cells were allowed to settle down for 4 hrs and were then maintained in low-serum (0.1% FBS) media overnight.
# The following morning, the media was removed and the cells were treated with 1000-2000 nM of test compound in low-serum media for 1 hr. The cells were washed free of test compound (3×) with PBS (Invitrogen). One set of cells was immediately lysed as indicated above as the 0 hr time point. The remaining cells were incubated with the appropriate complete growth media (10-20% FBS) for 1, 2, 4, 8, 16 (in certain circumstances) and 24 hr. DMSO (0.5%) controls were collected at all time points.
# [3] = Huh-7, Huh7 cells, read-out: Signaling EC50 (nM) pFGFR4 (Huh)
# [4] = MDA-MB-453, MDA-MB-453 cells, Method B (MSD) for signaling EC50 determination
# [5] = MDA-MB-453 cells, Method B (MSD) for signaling EC50 determination
Compound,EC50 (pFGFR4 in Huh7 cells; [3]),"EC50 [1, 5]",further results
C=CC(=O)N[C@@H]1COC[C@@H]1Nc1ncc2c(n1)N(C)C(=O)N(c1c(Cl)c(OC)cc(OC)c1Cl)C2 [Compound I-185],> 1000 nM,,"EC50 [1, 4]: 101 to 500 nM"
C=CC(=O)Nc1cc(N(C)CCOC)ccc1Nc1ncc2c(n1)N(Cc1ccccc1)C(=O)N(c1cc(OC)cc(OC)c1)C2 [Compound I-13],101 to 500 nM,,"EC50 [1, 4]: 101 to 500 nM"
C=CC(=O)Nc1ccccc1Nc1ncc2c(n1)N(C)C(=O)N(c1cc(OC)cc(OC)c1)C2 [Compound I-5],101 to 500 nM,101 to 500 nM,
C=CC(=O)Nc1ccccc1Nc1ncc2c(n1)NC(=O)N(c1cc(OC)cc(OC)c1)C2 [Compound I-125],> 1000 nM,,"EC50 [1, 4]: 501 to 999 nM"
C=CC(=O)N[C@H]1COC[C@H]1Nc1ncc2c(n1)N(C)C(=O)N(c1c(Cl)c(OC)cc(OC)c1Cl)C2 [Compound I-186],< 100 nM,,"EC50 [1, 4]: < 100 nM"
C=CC(=O)NC1COCC1Nc1ncc2c(n1)N(C)C(=O)N(c1c(Cl)c(OC)cc(OC)c1Cl)C2 (stereo not shown) [Compound I-126],< 100 nM,,"EC50 [1, 4]: < 100 nM"
C=CC(=O)NC1CN(C)CC1Nc1ncc2c(n1)N(C)C(=O)N(c1c(Cl)c(OC)cc(OC)c1Cl)C2 (racemic) [Compound I-138],101 to 500 nM,,"EC50 [1, 4]: 101 to 500 nM"
C=CC(=O)NC1CCCCC1Nc1ncc2c(n1)N(C)C(=O)N(c1cc(OC)cc(OC)c1Cl)C2 (racemic) [Compound I-76],> 1000 nM,,"EC50 [1, 4]: 501 to 999 nM"
C=CC(=O)NC1CCCCC1Nc1ncc2c(n1)N(Cc1cscn1)C(=O)N(c1c(Cl)c(OC)cc(OC)c1Cl)C2 (racemic) [Compound I-69],,< 100 nM,"duration of action against pFGFR4 signalling post washout [2]: prolonged inhibition of autophosphorylation of FGFR4; also recorded: prolonged duration of action; EC50 (pFGFR4 in Huh7 cells; Huh-7, read-out: Signaling EC50 (nM) pFGFR4 (Huh)): 101 to 500 nM"
C=CC(=O)Nc1ccccc1Nc1ncc2c(n1)N(Cc1cccc(NC(=O)CC)c1)C(=O)N(c1c(Cl)c(OC)cc(OC)c1Cl)C2 [Compound I-1],< 100 nM,< 100 nM,duration of action against pFGFR4 signalling post washout [2]: prolonged duration of action; also recorded: has PDA
C=CC(=O)NC1CCCCC1Nc1ncc2c(n1)N(CC(F)F)C(=O)N(c1cc(OC)cc(OC)c1Cl)C2 (racemic) [Compound I-107],> 1000 nM,,"EC50 [1, 4]: 501 to 999 nM"
C=CC(=O)NC1CCCCC1Nc1ncc2c(n1)N(CC(F)F)C(=O)N(c1c(Cl)c(OC)cc(OC)c1Cl)C2 (racemic) [Compound I-105],101 to 500 nM,,"EC50 [1, 4]: 101 to 500 nM"
C=CC(=O)Nc1ccccc1Nc1ncc2c(n1)N(C1CCCN(C(=O)OC(C)(C)C)C1)C(=O)N(c1cc(OC)cc(OC)c1)C2 (stereo not shown) [Compound I-36],101 to 500 nM,101 to 500 nM,
C=CC(=O)Nc1cc(N(C)CCOC)ccc1Nc1ncc2c(n1)N(C)C(=O)N(c1cc(OC)cc(OC)c1)C2 [Compound I-21],< 100 nM,< 100 nM,
CCC(=O)Nc1cccc(CN2C(=O)N(c3c(Cl)c(OC)cc(OC)c3Cl)Cc3cnc(Nc4ccccc4NC(=O)CC)nc32)c1 [Compound I-234],,,"duration of action against pFGFR4 signalling post washout [2]: does not show prolonged duration of action; also recorded: does not have PDA; EC50 ([1]; MDA-MB-453 cells, Method A (Western blot) for signaling EC50 determination): 101 to 500 nM"
C=CC(=O)NC1CCCCC1Nc1ncc2c(n1)N(CC#N)C(=O)N(c1c(Cl)c(OC)cc(OC)c1Cl)C2 (racemic) [Compound I-47],501 to 999 nM,101 to 500 nM,
C=CC(=O)Nc1ccccc1Nc1ncc2c(n1)N(Cc1cccc(N)c1)C(=O)N(c1c(Cl)c(OC)cc(OC)c1Cl)C2 [Compound I-26],< 100 nM,< 100 nM,
C=CC(=O)Nc1cc(N2CCN(CCOC)CC2)ccc1Nc1ncc2c(n1)N(Cc1cccc(NC(=O)CC)c1)C(=O)N(c1cc(OC)cc(OC)c1)C2 [Compound I-9],101 to 500 nM,< 100 nM,
C=CC(=O)Nc1ccccc1Nc1ncc2c(n1)N(CC(O)CO)C(=O)N(c1cc(OC)cc(OC)c1)C2 (stereo not shown) [Compound I-33],> 1000 nM,101 to 500 nM,
C=CC(=O)Nc1ccccc1Nc1ncc2c(n1)N(Cc1cccnc1)C(=O)N(c1cc(OC)cc(OC)c1)C2 [Compound I-44],< 100 nM,< 100 nM,
C=CC(=O)Nc1ccccc1Nc1ncc2c(n1)N(CC#N)C(=O)N(c1cc(OC)cc(OC)c1)C2 [Compound I-48],101 to 500 nM,101 to 500 nM,
C=CC(=O)Nc1cc(C(F)(F)F)ccc1Nc1ncc2c(n1)N(C)C(=O)N(c1cc(OC)cc(OC)c1)C2 [Compound I-42],< 100 nM,101 to 500 nM,
C=CC(=O)NC1CCCCC1Nc1ncc2c(n1)N(C1CC1)C(=O)N(c1c(Cl)c(OC)cc(OC)c1Cl)C2 (racemic) [Compound I-68],501 to 999 nM,,"EC50 [1, 4]: 101 to 500 nM"

# Further lines, with some results ahead:
EC50 (pFGFR4 in Huh7 cells; [3]),"EC50 [1, 5]",Compound,further results
< 100 nM,< 100 nM,C=CC(=O)Nc1ccccc1Nc1ncc2c(n1)N(Cc1cn[nH]c1)C(=O)N(c1cc(OC)cc(OC)c1)C2 [Compound I-121],
101 to 500 nM,101 to 500 nM,C=CC(=O)Nc1ccccc1Nc1ncc2c(n1)N(Cc1cscn1)C(=O)N(c1cc(OC)cc(OC)c1)C2 [Compound I-64],
< 100 nM,< 100 nM,C=CC(=O)NC1CCCCC1Nc1ncc2c(n1)N(Cc1ccnc(N)c1)C(=O)N(c1c(Cl)c(OC)cc(OC)c1Cl)C2 (stereo not shown) [Compound I-133],
101 to 500 nM,101 to 500 nM,C=CC(=O)NC1CCCCC1Nc1ncc2c(n1)N(CCOC)C(=O)N(c1c(Cl)c(OC)cc(OC)c1Cl)C2 (racemic) [Compound I-61],
101 to 500 nM,101 to 500 nM,C=CC(=O)Nc1ccccc1Nc1ncc2c(n1)N(C1COC1)C(=O)N(c1cc(OC)cc(OC)c1)C2 [Compound I-88],
> 1000 nM,101 to 500 nM,C=CC(=O)Nc1ccccc1Nc1ncc2cc(-c3cc(OC)cc(OC)c3)c(N)nc2n1 [Compound I-155],
< 100 nM,< 100 nM,C=CC(=O)Nc1ccccc1Nc1ncc2c(n1)N(C)C(=O)N(c1c(F)c(OC)cc(OC)c1F)C2 [Compound I-131],
101 to 500 nM,101 to 500 nM,C=CC(=O)Nc1ccccc1Nc1ncc2c(n1)N(CC(F)F)C(=O)N(c1cc(OC)cc(OC)c1)C2 [Compound I-99],
101 to 500 nM,101 to 500 nM,C=CC(=O)NC1CCCCC1Nc1ncc2c(n1)N(Cc1csc(C)n1)C(=O)N(c1c(Cl)c(OC)cc(OC)c1Cl)C2 (stereo not shown) [Compound I-137],
< 100 nM,101 to 500 nM,C=CC(=O)Nc1ccccc1Nc1ncc2c(n1)N(CCF)C(=O)N(c1cc(OC)cc(OC)c1)C2 [Compound I-102],
< 100 nM,< 100 nM,C=CC(=O)Nc1ccccc1Nc1ncc2c(n1)N(CC(F)F)C(=O)N(c1cc(OC)cc(OC)c1Cl)C2 [Compound I-104],
101 to 500 nM,101 to 500 nM,C=CC(=O)NC1CN(C(C)=O)CC1Nc1ncc2c(n1)N(C)C(=O)N(c1c(Cl)c(OC)cc(OC)c1Cl)C2 (racemic) [Compound I-139],
101 to 500 nM,101 to 500 nM,C=CC(=O)Nc1ccccc1Nc1ncc2c(n1)N(Cc1cccc(C(N)=O)c1)C(=O)N(c1cc(OC)cc(OC)c1)C2 [Compound I-97],
< 100 nM,< 100 nM,C=CC(=O)Nc1ccccc1Nc1ncc2c(n1)N(Cc1ccnc(N)c1)C(=O)N(c1cc(OC)cc(OC)c1)C2 [Compound I-87],
< 100 nM,< 100 nM,COc1cc(OC)c(Cl)c(N2Cc3cnc(Nc4ccccc4)nc3N(C)C2=O)c1Cl [Compound I-238],
101 to 500 nM,101 to 500 nM,C=CC(=O)Nc1ccccc1Nc1ncc2c(n1)N(C)C(=O)N(c1c(Cl)cccc1Cl)C2 [Compound I-83],
< 100 nM,< 100 nM,C=CC(=O)Nc1nn(C)cc1Nc1ncc2c(n1)N(C)C(=O)N(c1c(Cl)c(OC)cc(OC)c1Cl)C2 [Compound I-117],
< 100 nM,< 100 nM,C=CC(=O)Nc1ccccc1Nc1ncc2c(n1)N(Cc1cn[nH]c1)C(=O)N(c1c(Cl)c(OC)cc(OC)c1Cl)C2 [Compound I-124],
101 to 500 nM,101 to 500 nM,C=CC(=O)Nc1ccccc1Nc1ncc2c(n1)N(CCOC)C(=O)N(c1cc(OC)cc(OC)c1)C2 [Compound I-59],
< 100 nM,< 100 nM,C=CC(=O)Nc1cc(-c2nnnn2C)ccc1Nc1ncc2c(n1)N(C)C(=O)N(c1c(Cl)c(OC)cc(OC)c1Cl)C2 [Compound I-153],
< 100 nM,< 100 nM,C=CC(=O)Nc1ccccc1Nc1ncc2c(n1)N(CCF)C(=O)N(c1cc(OC)cc(OC)c1Cl)C2 [Compound I-110],
101 to 500 nM,101 to 500 nM,C=CC(=O)NC1CCCCC1Nc1ncc2c(n1)N(Cc1ccn(C)c(=O)c1)C(=O)N(c1c(Cl)c(OC)cc(OC)c1Cl)C2 (stereo not shown) [Compound I-132],
101 to 500 nM,101 to 500 nM,C=CC(=O)Nc1cc(-c2nnn(C)n2)ccc1Nc1ncc2c(n1)N(C)C(=O)N(c1cc(OC)cc(OC)c1)C2 [Compound I-146],
